The text below walks through data of patent US6794371B1, “Aminoalkylenephosphonates for treatment of bone disorders” (The Dow Chemical Company, priority 1999, dated 2004).

For this experiment, the system named is ovariectomized rats (bone mineral density). The experiment in a line: Ovariectomized rat osteoporosis model, bone mineral density by dual energy X-ray absorptiometry (DEXA) (Example 2). To be noted: 5 mg/kg.

Description: Eleven week old Female Sprague-Dawley laboratory rats (75) were fed a commercial rat diet and were allowed to drink water ad libitum. They were housed in pairs in an air-conditioned environment, and were allowed to enjoy 14 hours of illumination per day. Ten rats were sham-operated and were used as “non-osteopenic” control rats. All of the other rats were ovariectomized at 12 weeks of age. All surgeries were done under injectable anesthesia. […] The remaining rats were given various phosphonate compounds in groups of ten.
The rats were given doses three times during the first week and once a week thereafter.
All other compounds were dosed at 5 mg/kg. In this study, bone mineral density was determined by dual energy X-ray absorptiometry (DEXA).

For `O=P(O)(O)CN(Cc1ccccn1)CP(=O)(O)O` [AMPDMP, N,N-bis(methylenephosphonic acid)-2-(aminomethyl)pyridine], the “bone mineral density (BMD) over the study period, relative to OVX control group” value was “look even better”.

As for `O=P(O)(O)CN1Cc2cccc(n2)CN(CP(=O)(O)O)Cc2cccc(n2)C1` [BP2MP, N,N′-bis(methylenephosphonic acid)-2,11-diaza[3.3](2,6)pyridinophane], the “bone mineral density (BMD) over the study period, relative to OVX control group” value is “look even better”.
